The record followed here is patent publication US20020132800A1, “Dietary supplement composition and method for improving and maintaining healthy skin” (priority 2000, published 2002).

Series [1] can be described thus: Stability testing of the preferred embodiment tablet under accelerated storage conditions (ingredient content as % of claim). Format: physicochemical. Particulars: 40 +/- 2 deg C and 75 +/- 5% RH, 150 cc white HDPE bottle.
Series [2] can be described thus: Dissolution of ingredients from the tablet during accelerated stability testing. Conditions: 40 +/- 2 deg C and 75 +/- 5% RH, 150 cc white HDPE bottle. Type of series: physicochemical.

As for `O=C(O)CCCC[C@@H]1SC[C@@H]2NC(=O)N[C@@H]21` [Biotin], the “Result as % of claim at indicated weeks” value in series [1] (0 wk) was 105 % of claim; in series [1] (4 wk), 101 % of claim; in series [1] (8 wk) it was 100 % of claim; in series [1] (13 wk) it was 114 % of claim; in series [1] (26 wk), 93.0 % of claim.

Consider Silicon, for which the “Result as % of claim at indicated weeks” value in series [1] (0 wk) is reported as 108 % of claim; in series [1] (8 wk), 109 % of claim; in series [1] (13 wk), 122 % of claim; in series [1] (26 wk), 107 % of claim.

Take `Nc1nc2ncc(CNc3ccc(C(=O)N[C@@H](CCC(=O)O)C(=O)O)cc3)nc2c(=O)[nH]1` [Folic Acid]: the “Result as % of claim at indicated weeks” value in series [1] (0 wk) is on record as 169 % of claim; in series [1] (4 wk), 132 % of claim; in series [1] (8 wk) it was 125 % of claim; in series [1] (13 wk), 120 % of claim; in series [1] (26 wk), 117 % of claim.

Take `[Se]` [Selenium]: the “Result as % of claim at indicated weeks” value is listed as 103 % of claim in series [1] (0 wk); 136 % of claim in series [1] (4 wk); 123 % of claim in series [1] (8 wk); 129 % of claim in series [1] (13 wk); 126 % of claim in series [1] (26 wk).

In the case of `O=C1O[C@H]([C@@H](O)CO)C(O)=C1O` [Vitamin C], the “Result as % of claim at indicated weeks” value is given as 108 % of claim in series [1] (0 wk); 106 % of claim in series [1] (4 wk); 103 % of claim in series [1] (8 wk); 114 % of claim in series [1] (13 wk); 104 % of claim in series [1] (26 wk).

As to `Cc1cc2nc3c(=O)[nH]c(=O)nc-3n(C[C@H](O)[C@H](O)[C@H](O)CO)c2cc1C` [Vitamin B2, Riboflavin], the “Result as % of claim at indicated weeks” value is given as 132 % of claim in series [1] (0 wk); 123 % of claim in series [1] (4 wk); 125 % of claim in series [1] (8 wk); 123 % of claim in series [1] (13 wk); 123 % of claim in series [1] (26 wk). Further, the “Dissolution, result as % of claim at indicated weeks” value (from here on “Dissolution, result as % of claim”) in series [2] (0 wk) was 133 % of claim; in series [2] (4 wk) it was 120 % of claim; in series [2] (8 wk), 109 % of claim; in series [2] (13 wk), 119 % of claim; in series [2] (26 wk) it was 125 % of claim.

On to `[Cu]` [Copper], for which the “Result as % of claim at indicated weeks” value in series [1] (0 wk) is given as 115 % of claim; in series [1] (4 wk), 111 % of claim; in series [1] (8 wk), 111 % of claim; in series [1] (13 wk), 114 % of claim; in series [1] (26 wk), 109 % of claim.

Turning to `Cc1ncc(CO)c(CO)c1O.Cl` [Vitamin B6], the “Result as % of claim at indicated weeks” value was 116 % of claim in series [1] (0 wk); 109 % of claim in series [1] (4 wk); 110 % of claim in series [1] (8 wk); 137 % of claim in series [1] (13 wk); 114 % of claim in series [1] (26 wk).

As for Vitamin A, the “Result as % of claim at indicated weeks” value in series [1] (0 wk) is reported as 136 % of claim; in series [1] (4 wk), 134 % of claim; in series [1] (8 wk), 113 % of claim; in series [1] (13 wk), 106 % of claim; in series [1] (26 wk) it was 110 % of claim.

Turning to `[Cr]` [Chromium], the “Result as % of claim at indicated weeks” value in series [1] (0 wk) is recorded as 139 % of claim; in series [1] (4 wk), 128 % of claim; in series [1] (8 wk), 120 % of claim; in series [1] (13 wk), 133 % of claim; in series [1] (26 wk) it was 121 % of claim.

`[Mn+2]` [Manganese]: the “Result as % of claim at indicated weeks” value in series [1] (0 wk) is 119 % of claim; in series [1] (4 wk) it was 114 % of claim; in series [1] (8 wk), 115 % of claim; in series [1] (13 wk), 115 % of claim; in series [1] (26 wk), 113 % of claim.

As to `[Zn]` [Zinc], the “Result as % of claim at indicated weeks” value is on record as 121 % of claim in series [1] (0 wk); 109 % of claim in series [1] (4 wk); 117 % of claim in series [1] (8 wk); 108 % of claim in series [1] (13 wk); 112 % of claim in series [1] (26 wk). For the same compound, the “Dissolution, result as % of claim” value was 117 % of claim in series [2] (0 wk), 102 % of claim in series [2] (4 wk), 104 % of claim in series [2] (8 wk) and 107 % of claim in series [2] (13 wk).

With `[Ca+2]` [Calcium], the “Result as % of claim at indicated weeks” value in series [1] (13 wk) is 120 % of claim; in series [1] (26 wk), 118 % of claim. For the same compound, the “Dissolution, result as % of claim” value was 119 % of claim in series [2] (13 wk) and 115 % of claim in series [2] (26 wk).

As to `CC1=C(/C=C/C(C)=C/C=C/C(C)=C/C=C/C=C(C)/C=C/C=C(C)/C=C/C2=C(C)CCCC2(C)C)C(C)(C)CCC1` [Beta Carotene], the “Result as % of claim at indicated weeks” value in series [1] (0 wk) is 123 % of claim; in series [1] (4 wk) it was 139 % of claim; in series [1] (8 wk) it was 130 % of claim; in series [1] (13 wk), 144 % of claim; in series [1] (26 wk), 124 % of claim.

With `CC(C)=CCC/C(C)=C/C=C/C(C)=C/C=C/C(C)=C/C=C/C=C(C)/C=C/C=C(C)/C=C/C=C(\C)CCC=C(C)C` [Lycopene], the “Result as % of claim at indicated weeks” value in series [1] (0 wk) is on record as 131 % of claim; in series [1] (4 wk) it was 144 % of claim; in series [1] (8 wk), 170 % of claim; in series [1] (13 wk) it was 156 % of claim; in series [1] (26 wk), 150 % of claim.

For Vitamin E, the “Result as % of claim at indicated weeks” value in series [1] (0 wk) was 126 % of claim; in series [1] (4 wk) it was 115 % of claim; in series [1] (8 wk), 110 % of claim; in series [1] (13 wk) it was 125 % of claim; in series [1] (26 wk) it was 121 % of claim.
